US11198713B2, “Agents modulating beta-catenin functions and methods thereof” (FOG PHARMACEUTICALS, INC., priority 2017, dated 2021)

The compounds below were run against T1, full-length beta-catenin (Axin site) (Homo sapiens, UniProt P35222) (assay: Competition fluorescence polarization assay (Axin site probe)). Conditions: competition fluorescence polarization, Table 2; read-out: in vitro FP EC50.
T1 construct: 15 nM full-length beta-catenin, 20 nM FITC labeled peptide in buffer
T1 sequence (P35222 1-781): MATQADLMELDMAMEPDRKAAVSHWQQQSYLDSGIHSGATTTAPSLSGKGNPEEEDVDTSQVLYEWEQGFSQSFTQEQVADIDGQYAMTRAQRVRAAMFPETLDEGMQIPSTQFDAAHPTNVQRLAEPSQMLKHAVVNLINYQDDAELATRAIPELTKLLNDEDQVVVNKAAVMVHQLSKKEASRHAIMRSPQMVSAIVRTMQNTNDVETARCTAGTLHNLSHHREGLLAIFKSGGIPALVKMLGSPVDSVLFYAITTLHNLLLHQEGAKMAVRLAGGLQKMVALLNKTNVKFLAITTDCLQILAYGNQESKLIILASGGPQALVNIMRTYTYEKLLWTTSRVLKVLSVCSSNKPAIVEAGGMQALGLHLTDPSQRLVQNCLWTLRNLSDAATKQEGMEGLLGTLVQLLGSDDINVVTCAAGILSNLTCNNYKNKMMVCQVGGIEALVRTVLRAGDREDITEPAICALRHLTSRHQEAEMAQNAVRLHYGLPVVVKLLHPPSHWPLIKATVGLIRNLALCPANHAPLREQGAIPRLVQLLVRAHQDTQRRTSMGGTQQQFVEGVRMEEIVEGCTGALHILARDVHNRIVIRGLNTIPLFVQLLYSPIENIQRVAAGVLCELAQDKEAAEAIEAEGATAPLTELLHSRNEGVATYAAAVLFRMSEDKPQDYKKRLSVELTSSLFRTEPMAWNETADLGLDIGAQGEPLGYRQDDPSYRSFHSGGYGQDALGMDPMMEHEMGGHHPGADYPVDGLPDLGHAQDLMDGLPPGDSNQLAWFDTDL
Type: binding
Protocol: FIG. 1. […] Peptide solutions were prepared in buffer (50 mM Tris pH 8.0, 250 mM NaCl, 2% glycerol, 0.5 mM EDTA, 0.02% w/v sodium azide) using a 3-fold serial dilution from 5 μM. Probe solution (15 nM full-length 13-Catenin, 20 nM FITC labeled peptide (FITC-PEG1-PQ-S5-ILD-S5-HVRRVWR (SEQ ID NO: 1) (hydrocarbon staple formed by two S5 via olefin metathesis)) in buffer) was prepared and incubated for 5 minutes, then 40 μL per well plated in a black polystyrene 384-well plate (Corning). Equal volume of the titrated peptide was added to the plate and incubated protected from light for 15 minutes prior to read. Reads were performed on a Spectramax M5 (Molecular Devices) in duplicate.
FIG. 7. […] BCL9 Competition FP assay: Peptide solutions were prepared in buffer (50 mM Tris pH 8.0, 250 mM NaCl, 2% glycerol, 0.5 mM EDTA, 0.02% w/v sodium azide) using a 3-fold serial dilution from 10 μM. Probe solution (250 nM full-length beta-catenin, 20 nM 5FAM labeled peptide in buffer) was prepared and 40 μL per well plated in a black polystyrene 384-well plate (Corning). Equal volume of the titrated peptide was added to the plate and incubated protected from light for 15 minutes prior to read. Reads were performed on a Spectramax M5 (Molecular Devices) in duplicate. Probe: Ac-[…]nLeu-Leu-2NapA-bala-bala-Lys5FAM-NH2 (SEQ ID NO: 2) (from Biochemistry, 2009, 48 (40), pp 9534-9541). Axin Competition FP assay: Peptide solutions were prepared in buffer (50 mM Tris pH 8.0, 250 mM NaCl, 2% glycerol, 0.5 mM EDTA, 0.02% w/v sodium azide) using a 3-fold serial dilution from 5 μM. Probe solution (15 nM full-length beta-catenin, 20 nM FITC labeled peptide in buffer) was prepared and incubated for 5 minutes, then 40 μL per well plated in a black polystyrene 384-well plate (Corning). Equal volume of the titrated peptide was added to the plate and incubated protected from light for 15 minutes prior to read. Reads were performed on a Spectramax M5 (Molecular Devices) in duplicate. Probe: FITC-StAx-33 from Grossmann et al. PNAS 109 17942-17947.

| Compound | EC50 [µM] |
| --- | --- |
| CC[C@H](C)[C@@H]1NC(=O)[C@H](Cc2ccccn2)NC(=O)[C@H](C)NC(=O)[C@H](CC(=O)O)NC(=O)[C@H](CC(C)C)NC(=O)[C@H]([C@@H](C)CC)NC(=O)[C@](C)(NC(=O)[C@H](C)NC(C)=O)CCCCCCC=CCOC(=O)N2CC[C@@](C(=O)N[C@H](C(=O)N[C@H](C(=O)N[C@@H](Cc3c[nH]c4ccccc34)C(N)=O)C(C)C)[C@@H](C)CC)(C2)NC1=O (single isomer, unassigned) [FP0556c Isomer 2, Ac-A-R8-I-L-D-A-2pyr-I-MB-I-V-W-NH2] | > 5 |
| CC[C@H](C)[C@@H]1NC(=O)[C@H](Cc2ccccn2)NC(=O)[C@H](C)NC(=O)[C@H](CC(=O)O)NC(=O)[C@H](CC(C)C)NC(=O)[C@H]([C@@H](C)CC)NC(=O)[C@](C)(NC(=O)[C@H](C)NC(C)=O)CCCCCCC=CCOC(=O)N2CC[C@@](C(=O)N[C@@H](CC(C)C)C(=O)N[C@H](C(=O)N[C@@H](Cc3c[nH]c4ccccc34)C(N)=O)C(C)C)(C2)NC1=O (single isomer, unassigned) [FP0557c Isomer 1, Ac-A-R8-I-L-D-A-2pyr-I-MB-L-V-W-NH2] | > 5 |
| CC[C@H](C)[C@@H]1NC(=O)[C@H](Cc2ccccn2)NC(=O)[C@H](C)NC(=O)[C@H](CC(=O)O)NC(=O)[C@H](CC(C)C)NC(=O)[C@H]([C@@H](C)CC)NC(=O)[C@](C)(NC(=O)[C@H](C)NC(C)=O)CCCCCCC=CCOC(=O)N2CC[C@@](C(=O)N[C@@H](CC(C)C)C(=O)N[C@H](C(=O)N[C@@H](Cc3c[nH]c4ccccc34)C(N)=O)C(C)C)(C2)NC1=O (single isomer, unassigned) [FP0557c Isomer 2, Ac-A-R8-I-L-D-A-2pyr-I-MB-L-V-W-NH2] | > 5 |
| CC[C@H](C)[C@@H]1NC(=O)[C@H](Cc2ccccn2)NC(=O)[C@H](C)NC(=O)[C@H](CC(=O)O)NC(=O)[C@H](CC(C)C)NC(=O)[C@H]([C@@H](C)CC)NC(=O)[C@](C)(NC(=O)[C@H](C)NC(C)=O)CCCCCCC=CCOC(=O)N2CC[C@@](C(=O)N[C@@H](CC(N)=O)C(=O)N[C@H](C(=O)N[C@@H](Cc3c[nH]c4ccccc34)C(N)=O)C(C)C)(C2)NC1=O (single isomer, unassigned) [FP0558c Isomer 1, Ac-A-R8-I-L-D-A-2pyr-I-MB-N-V-W-NH2] | > 5 |
| CC[C@H](C)[C@@H]1NC(=O)[C@H](Cc2ccccn2)NC(=O)[C@H](C)NC(=O)[C@H](CC(=O)O)NC(=O)[C@H](CC(C)C)NC(=O)[C@H]([C@@H](C)CC)NC(=O)[C@](C)(NC(=O)[C@H](C)NC(C)=O)CCCCCCC=CCOC(=O)N2CC[C@@](C(=O)N[C@@H](CC(N)=O)C(=O)N[C@H](C(=O)N[C@@H](Cc3c[nH]c4ccccc34)C(N)=O)C(C)C)(C2)NC1=O (single isomer, unassigned) [FP0558c Isomer 2, Ac-A-R8-I-L-D-A-2pyr-I-MB-N-V-W-NH2] | > 5 |
| CC[C@H](C)[C@@H]1NC(=O)[C@H](Cc2ccccn2)NC(=O)[C@H](C)NC(=O)[C@H](CC(=O)O)NC(=O)[C@H](CC(C)C)NC(=O)[C@H]([C@@H](C)CC)NC(=O)[C@](C)(NC(=O)[C@H](C)NC(C)=O)CCCCCCC=CCOC(=O)N2CC[C@@](C(=O)N[C@@H](CCC(N)=O)C(=O)N[C@H](C(=O)N[C@@H](Cc3c[nH]c4ccccc34)C(N)=O)C(C)C)(C2)NC1=O (single isomer, unassigned) [FP0559c Isomer 1, Ac-A-R8-I-L-D-A-2pyr-I-MB-Q-V-W-NH2] | > 5 |

Other lines, results leading:

| EC50 [µM] | Compound |
| --- | --- |
| > 5 | CC[C@H](C)[C@@H]1NC(=O)[C@H](Cc2ccccn2)NC(=O)[C@H](C)NC(=O)[C@H](CC(=O)O)NC(=O)[C@H](CC(C)C)NC(=O)[C@H]([C@@H](C)CC)NC(=O)[C@](C)(NC(=O)[C@H](C)NC(C)=O)CCCCCCC=CCOC(=O)N2CC[C@@](C(=O)N[C@@H](CCC(N)=O)C(=O)N[C@H](C(=O)N[C@@H](Cc3c[nH]c4ccccc34)C(N)=O)C(C)C)(C2)NC1=O (single isomer, unassigned) [FP0559c Isomer 2, Ac-A-R8-I-L-D-A-2pyr-I-MB-Q-V-W-NH2] |
| > 5 | CC[C@H](C)[C@@H]1NC(=O)[C@H](Cc2ccccn2)NC(=O)[C@H](C)NC(=O)[C@H](CC(=O)O)NC(=O)[C@H](CC(C)C)NC(=O)[C@H]([C@@H](C)CC)NC(=O)[C@](C)(NC(=O)[C@H](C)NC(C)=O)CCCCCCC=CCOC(=O)N2CC[C@@](C(=O)N[C@@H](CO)C(=O)N[C@H](C(=O)N[C@@H](Cc3c[nH]c4ccccc34)C(N)=O)C(C)C)(C2)NC1=O (single isomer, unassigned) [FP0560c Isomer 1, Ac-A-R8-I-L-D-A-2pyr-I-MB-S-V-W-NH2] |
| > 5 | CC[C@H](C)[C@@H]1NC(=O)[C@H](Cc2ccccn2)NC(=O)[C@H](C)NC(=O)[C@H](CC(=O)O)NC(=O)[C@H](CC(C)C)NC(=O)[C@H]([C@@H](C)CC)NC(=O)[C@](C)(NC(=O)[C@H](C)NC(C)=O)CCCCCCC=CCOC(=O)N2CC[C@@](C(=O)N[C@@H](CO)C(=O)N[C@H](C(=O)N[C@@H](Cc3c[nH]c4ccccc34)C(N)=O)C(C)C)(C2)NC1=O (single isomer, unassigned) [FP0560c Isomer 2, Ac-A-R8-I-L-D-A-2pyr-I-MB-S-V-W-NH2] |
| > 5 | CC[C@H](C)[C@@H]1NC(=O)[C@H](Cc2ccccn2)NC(=O)[C@H](C)NC(=O)[C@H](CC(=O)O)NC(=O)[C@H](CC(C)C)NC(=O)[C@H]([C@@H](C)CC)NC(=O)[C@](C)(NC(=O)[C@H](C)NC(C)=O)CCCCCCC=CCOC(=O)N2CC[C@@](C(=O)N[C@H](C(=O)N[C@H](C(=O)N[C@@H](Cc3c[nH]c4ccccc34)C(N)=O)C(C)C)[C@@H](C)O)(C2)NC1=O (single isomer, unassigned) [FP0561c Isomer 1, Ac-A-R8-I-L-D-A-2pyr-I-MB-T-V-W-NH2] |
| > 5 | CC[C@H](C)[C@@H]1NC(=O)[C@H](Cc2ccccn2)NC(=O)[C@H](C)NC(=O)[C@H](CC(=O)O)NC(=O)[C@H](CC(C)C)NC(=O)[C@H]([C@@H](C)CC)NC(=O)[C@](C)(NC(=O)[C@H](C)NC(C)=O)CCCCCCC=CCOC(=O)N2CC[C@@](C(=O)N[C@H](C(=O)N[C@H](C(=O)N[C@@H](Cc3c[nH]c4ccccc34)C(N)=O)C(C)C)[C@@H](C)O)(C2)NC1=O (single isomer, unassigned) [FP0561c Isomer 2, Ac-A-R8-I-L-D-A-2pyr-I-MB-T-V-W-NH2] |
| > 5 | CC[C@H](C)[C@@H]1NC(=O)[C@H](Cc2ccccn2)NC(=O)[C@H](C)NC(=O)[C@H](CC(=O)O)NC(=O)[C@H](CC(C)C)NC(=O)[C@H]([C@@H](C)CC)NC(=O)[C@](C)(NC(=O)[C@H](C)NC(C)=O)CCCCCCC=CCOC(=O)N2CC[C@@](C(=O)N[C@H](C(=O)N[C@H](C(=O)N[C@@H](Cc3c[nH]c4ccccc34)C(N)=O)C(C)C)C(C)C)(C2)NC1=O (single isomer, unassigned) [FP0562c Isomer 1, Ac-A-R8-I-L-D-A-2pyr-I-MB-V-V-W-NH2] |
| > 5 | CC[C@H](C)[C@@H]1NC(=O)[C@H](Cc2ccccn2)NC(=O)[C@H](C)NC(=O)[C@H](CC(=O)O)NC(=O)[C@H](CC(C)C)NC(=O)[C@H]([C@@H](C)CC)NC(=O)[C@](C)(NC(=O)[C@H](C)NC(C)=O)CCCCCCC=CCOC(=O)N2CC[C@@](C(=O)N[C@H](C(=O)N[C@H](C(=O)N[C@@H](Cc3c[nH]c4ccccc34)C(N)=O)C(C)C)C(C)C)(C2)NC1=O (single isomer, unassigned) [FP0562c Isomer 2, Ac-A-R8-I-L-D-A-2pyr-I-MB-V-V-W-NH2] |
